Test results reported in US5721265A, “Fluorinated 2-nitroimidazole analogs for detecting hypoxic tumor cells” (priority 1995, dated 1998).
Converted amounts (≈) assume the structure as drawn.

Legend:
[1] = test system: mouse tumors (EMT-6, KHT, RIF-1); conditions: cited from earlier work; for 19F signal intensity by tumor type: EMT-6, KHT vs RIF-1; for retention in mouse tumors (19F MRS): in vivo
[2] = in vivo; cited from earlier work
[3] = test system: tumors; conditions: cited from earlier work
[4] = cited from earlier work
[5] = literature compounds; cited from earlier work
[6] = solubility in 0.9% saline solution
[7] = log P (lipophilicity); format: physicochemical

SMILES	19F signal intensity by tumor type [1]	retention in mouse tumors (19F MRS) [1]	neurotoxic side effects [2]	octanol/water partition coefficient [4]	log P [5]	solubility [6]	also measured
O=[N+]([O-])c1nccn1CC(O)COC(C(F)(F)F)C(F)(F)F (stereo not shown) [CCI-103F, hexafluoromisonidazole]	higher in EMT-6 and KHT than RIF-1 tumors	selectively retained in mouse tumors	neurotoxic side effects	20			staining for bound drug in tumors ([3]; immunohistochemistry): some staining for bound drug at the periphery of necrotic zones; 19F tumor signal detectable after twenty-four hours ([3]; intraperitoneal, 24 hours): 4 of 10
O=C(Cn1ccnc1[N+](=O)[O-])NCCO [Etanidazole]					-1.28	551 mM (≈ 118 mg/mL)	neurotoxicity relative to Misonidazole [2]: less neurotoxic than Misonidazole
COCC(O)Cn1ccnc1[N+](=O)[O-] (stereo not shown) [Misonidazole]					-0.32		
O=[N+]([O-])c1nccn1CC(O)CF (stereo not shown) [Ro 07-0741]	higher in EMT-6 and KHT than RIF-1 tumors	selectively retained in mouse tumors	neurotoxic side effects	0.41			
O=C(Cn1ccnc1[N+](=O)[O-])N(CCO)CC(O)C(F)(F)F (stereo not shown) [SR 4557, N-(2-hydroxyethyl)-N-(2-hydroxy-3,3,3-trifluoropropyl)-2-(2-nitro 1H-imidazol-1-yl)acetamide]						628 mM (≈ 205 mg/mL)	logP [7]: -0.36
